Test results: ChEMBL document CHEMBL1201862, “PubChem BioAssay data set” (2004)
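Tested at 5 concentrations; 48 h exposure; 96-well plates; endpoints linearly interpolated, else capped at highest concentration. GI50: concentration for 50% inhibition of growth.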 Activity calls are given as the source filed them. Cut-off read from the data, not from the text of the source: active = GI50 up to about 1.1 µM and inactive = higher.

Key:
Assay in all cases: NCI anticancer screen, dose series, 48 h
KM-20L2 = tested on: KM-20L2
SNB-78 = tested on: SNB-78
DMS-114 = tested on: DMS-114
XF498 = tested on: XF498
HOP-18 = tested on: HOP-18
LXFL 529 = tested on: LXFL 529
RXF 631 = tested on: RXF 631
DMS-273 = tested on: DMS-273
T47D = tested on: T47D

Measured: GI50

COc1ccccc1C(=O)N(Cc1ccccc1)c1ccc(Cl)c(C(=O)OC(C)C)c1
inactive: KM-20L2 30.3 µM | SNB-78 19.1 µM | DMS-114 12.6 µM | XF498 14.2 µM | HOP-18 14 µM | LXFL 529 23 µM | RXF 631 17 µM | DMS-273 5.98 µM | T47D 5.52 µM

COC1=C(N=[N+]=[N-])C(=O)c2ncccc2C1=O
inactive: KM-20L2 18.5 µM | SNB-78 5.7 µM | DMS-114 6.85 µM | XF498 4.74 µM | LXFL 529 1.72 µM | RXF 631 16.3 µM | DMS-273 12.9 µM | T47D 2.13 µM

COc1ccc2cc3nc(O)cc(O)c3cc2c1OC
inactive: KM-20L2 > 100 µM | SNB-78 > 100 µM | DMS-114 > 100 µM | XF498 > 100 µM | HOP-18 > 100 µM | LXFL 529 > 100 µM | RXF 631 > 100 µM

COc1ccc(CN2CC(C)(C)C2=O)c(OC)c1
inactive: KM-20L2 > 100 µM | SNB-78 > 100 µM | DMS-114 > 100 µM | XF498 > 100 µM | HOP-18 > 100 µM | RXF 631 > 100 µM | DMS-273 > 100 µM

Fc1ccc2c(c1)SC1Oc3ccccc3-c3c1c-2nn3-c1ccccc1 (stereo not given)
inactive: KM-20L2 > 100 µM | SNB-78 > 100 µM | DMS-114 > 100 µM | XF498 > 100 µM | HOP-18 27 µM | LXFL 529 > 100 µM | RXF 631 7.69 µM | DMS-273 > 100 µM

CN(C)CC/[N+]([O-])=C(/c1ccccc1)C12CC3CC(CC(C3)C1)C2
inactive: KM-20L2 11.5 µM | SNB-78 19 µM | DMS-114 20.2 µM | XF498 13.2 µM | HOP-18 20.9 µM | LXFL 529 24 µM | RXF 631 14 µM

COc1ccc(C2=NNC(=O)OC2c2ccccc2)cc1 (stereo not given)
inactive: KM-20L2 41.2 µM | SNB-78 95.7 µM | DMS-114 71.8 µM | XF498 74 µM | HOP-18 57.9 µM | LXFL 529 70 µM | RXF 631 > 100 µM

O=C1C2Nc3ccccc3SC2C(=O)N1c1cccc([N+](=O)[O-])c1 (stereo not given)
inactive: KM-20L2 > 20.5 µM | SNB-78 > 100 µM | DMS-114 44.1 µM | XF498 > 100 µM | LXFL 529 74.3 µM | RXF 631 > 100 µM | DMS-273 1.46 µM
